Source: US20080125424A1, “Derivatives of urea and related diamines, methods for their manufacture, and uses therefor” (priority 2006, published 2008)

Molecular target: T1, human parathyroid cell Ca2+ receptor (hPCaR) (Homo sapiens, UniProt P41180)
T1 construct: expressed in transfected cells
T1 sequence (P41180 20-1078): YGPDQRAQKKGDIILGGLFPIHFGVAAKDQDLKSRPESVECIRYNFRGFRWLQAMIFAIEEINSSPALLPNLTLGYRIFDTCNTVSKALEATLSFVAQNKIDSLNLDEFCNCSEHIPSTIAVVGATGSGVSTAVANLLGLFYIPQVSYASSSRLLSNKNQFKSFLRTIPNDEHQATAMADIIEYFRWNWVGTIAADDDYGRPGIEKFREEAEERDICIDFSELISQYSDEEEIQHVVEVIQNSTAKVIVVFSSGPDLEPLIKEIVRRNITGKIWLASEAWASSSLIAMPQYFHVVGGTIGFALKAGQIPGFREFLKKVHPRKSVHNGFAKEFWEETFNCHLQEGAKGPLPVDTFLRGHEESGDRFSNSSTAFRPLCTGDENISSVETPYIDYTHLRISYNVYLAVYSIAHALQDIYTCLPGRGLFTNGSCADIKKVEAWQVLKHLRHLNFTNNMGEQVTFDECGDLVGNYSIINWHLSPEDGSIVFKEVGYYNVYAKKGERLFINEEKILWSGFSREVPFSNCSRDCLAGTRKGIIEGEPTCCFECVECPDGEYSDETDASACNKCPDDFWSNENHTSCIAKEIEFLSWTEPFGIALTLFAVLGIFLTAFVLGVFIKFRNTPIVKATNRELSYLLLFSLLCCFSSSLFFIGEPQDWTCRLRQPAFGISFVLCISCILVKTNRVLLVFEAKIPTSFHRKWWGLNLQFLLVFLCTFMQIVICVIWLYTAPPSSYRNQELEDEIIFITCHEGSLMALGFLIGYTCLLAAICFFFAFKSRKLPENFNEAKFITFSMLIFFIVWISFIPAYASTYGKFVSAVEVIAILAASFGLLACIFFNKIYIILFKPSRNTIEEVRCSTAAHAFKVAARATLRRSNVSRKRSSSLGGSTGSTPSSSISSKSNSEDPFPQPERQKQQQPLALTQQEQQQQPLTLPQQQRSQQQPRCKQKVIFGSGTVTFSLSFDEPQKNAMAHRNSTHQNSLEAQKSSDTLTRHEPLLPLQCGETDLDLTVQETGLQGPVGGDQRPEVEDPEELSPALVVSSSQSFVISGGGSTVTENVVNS
Test: [Ca2+]i fluorescence assay in HEK 293 4.0-7 cells expressing hPCaR
Assay type: cell-based
Details: buffer with 1 mM CaCl2
Procedure: The activities of the compounds of the present invention on calcium receptors were measured. In one embodiment, the measurement was performed in accordance with the method described in Example 4 of Nemeth et al., PCT/US95/13704 (International Publication No. WO96/12697) herein incorporated by reference.
A 4.0-kb NotI-HindIII fragment of the human parathyroid cell Ca^2+ receptor (hPCaR) cDNA was subcloned into the mammalian expression vector pCEP4 (Invitrogen) containing the hygromycin-resistant gene as a selectable marker. This plasmid was transfected into HEK 293 cells by calcium phosphate precipitation. Transfected cells were grown in Dulbecco's modified Eagle's medium containing 10% fetal bovine serum and hygromycin (200 μg/mL). Hygromycin-resistant colonies were subcloned and assayed for hPCaR mRNA by solution hybridization using a ^32P-labeled RNA probe complementary to the (4.0 kb) hPCaR sequence (Garrett, et al., J. Biol. Chem. 270, 12919-12925 (1995)). Clone 7 was used to assess the effects of compounds on [Ca^2+]i. This stably transfected cell line was termed HEK 293 4.0-7. For measurements of [Ca^2+]i, the cells were recovered from tissue culture flasks by brief treatment with Versene (Invitrogen; Containing 0.2 g/L EDTA.4Na in phosphate-buffered saline) and then seeded in collagen coated 384-well plates (BD Biosciences) at 20K cells per well in the growth media (same as above). Cells were grown in 37c TC incubator overnight. Then, the media was discarded and cells were loaded with 1× dye from Ca^2+ Assay Kit I (BD Biosciences) in parathyroid cell buffer (126 mM NaCl, 4 mM KCl, 1 mM MgSO4, 0.7 mM K2HPO4/KH2PO4, 20 mM HEPES.NaOH (pH 7.45)) containing 0.5% BSA and 1 mM CaCl2. Cells were loaded at room temperature for 90 minutes. Each test compound was added to the cells and the fluorescence was recorded by using excitation and emission wavelengths of 485 and 530 nm, respectively.

Row | EC50 | Structure (SMILES)
1 | 100 to 1000 nM | O=C(CCCN(CCC(c1ccccc1)c1ccccc1)C(=O)Nc1nc2ccccc2s1)N1CCCCC1 [Example 105, 3-(benzo[d]thiazol-2-yl)-1-(3,3-diphenylpropyl)-1-(4-oxo-4-(piperidin-1-yl)butyl)urea]
2 | < 100 nM | O=C(O)CCCN(CCC(c1ccccc1)c1ccccc1)C(=O)Nc1nc(-c2ccccc2)c(Cl)s1 [Example 83, 4-(3-(5-chloro-4-phenylthiazol-2-yl)-1-(3,3-diphenylpropyl)ureido)butanoic acid]
3 | 100 to 1000 nM | NC(=O)CCN(CCC(c1ccccc1)c1ccccc1)C(=O)Nc1nc(-c2ccccc2)c(Cl)s1 [Example 110, 1-(3-amino-3-oxopropyl)-3-(5-chloro-4-phenylthiazol-2-yl)-1-(3,3-diphenylpropyl)urea]
4 | < 100 nM | CS(=O)(=O)Nc1ccc(-c2csc(NC(=O)N(CCNC(=O)C3CCCNC3)CCC(c3ccccc3)c3ccccc3)n2)cc1 (stereo not shown) [Example 130, 1-(3,3-diphenylpropyl)-3-(4-(4-(methylsulfonamido)phenyl)thiazol-2-yl)-1-(2-(piperidine-3-carboxamido)ethyl)urea]
5 | < 100 nM | CS(=O)(=O)Nc1ccc(-c2nc(NC(=O)N(CCO)CCC(c3ccccc3)c3ccccc3)sc2Cl)cc1 [Example 133, 3-(5-chloro-4-(4-(methylsulfonamido)phenyl)thiazol-2-yl)-1-(3,3-diphenylpropyl)-1-(2-hydroxyethyl)urea]
6 | 100 to 1000 nM | O=C(Nc1nc2ccccc2s1)N(CCO)CCC(c1ccccc1)c1ccccc1 [Example 175, 3-Benzothiazol-2-yl-1-(3,3-diphenylpropyl)-1-(2-hydroxy-ethyl)-urea]
7 | < 100 nM | O=C(NCCN(CCC(c1ccccc1)c1ccccc1)C(=O)Nc1nc2ccccc2s1)C1CCCNC1 (stereo not shown) [Example 129, 3-(benzo[d]thiazol-2-yl)-1-(3,3-diphenylpropyl)-1-(2-(piperidine-3-carboxamido)ethyl)urea]
8 | 100 to 1000 nM | N#Cc1ccc(-c2nc(NC(=O)N(CCCC(=O)O)CCC(c3ccccc3)c3ccccc3)sc2Cl)cc1 [Example 92, 4-(3-(5-chloro-4-(4-cyanophenyl)thiazol-2-yl)-1-(3,3-diphenylpropyl)ureido)butanoic acid]
9 | 100 to 1000 nM | C[C@@H]1CNCCN1C(=O)CCCN(CCC(c1ccccc1)c1ccccc1)C(=O)Nc1nc(-c2ccccc2)cs1 [Example 91, (R)-1-(3,3-diphenylpropyl)-1-(4-(2-methylpiperazin-1-yl)-4-oxobutyl)-3-(4-phenylthiazol-2-yl)urea]
10 | 1000 to 5000 nM | C[C@@H]1CN(C(=O)CCN(CCC(c2ccccc2)c2ccccc2)C(=O)Nc2nc3ccccc3s2)CCN1 [Example 125, (R)-3-(benzo[d]thiazol-2-yl)-1-(3,3-diphenylpropyl)-1-(3-(3-methylpiperazin-1-yl)-3-oxopropyl)urea]
11 | < 100 nM | CS(=O)(=O)Nc1ccc(-c2csc(NC(=O)N(CCCC(=O)NC3CCNCC3)CCC(c3ccccc3)c3ccccc3)n2)cc1 [Example 70, 1-(3,3-diphenylpropyl)-3-(4-(4-(methylsulfonamido)phenyl)thiazol-2-yl)-1-(4-oxo-4-(piperidin-4-ylamino)butyl)urea]
12 | < 100 nM | CN(C)C(=O)CCCN(CCC(c1ccccc1)c1ccccc1)C(=O)Nc1nc2ccccc2s1 [Example 89, 3-(benzo[d]thiazol-2-yl)-1-(4-(dimethylamino)-4-oxobutyl)-1-(3,3-diphenylpropyl)urea]
13 | < 100 nM | CC(CN(CCC(c1ccccc1)c1ccccc1)C(=O)Nc1nc(-c2ccccc2)cs1)C(=O)O (stereo not shown) [Example 69, 3-(1-(3,3-diphenylpropyl)-3-(4-phenylthiazol-2-yl)ureido)-2-methylpropanoic acid]
14 | < 100 nM | CS(=O)(=O)Nc1ccc(-c2nc(NC(=O)N(CCCO)CCC(c3ccccc3)c3ccccc3)sc2Cl)cc1 [Example 134, 3-(5-chloro-4-(4-(methylsulfonamido)phenyl)thiazol-2-yl)-1-(3,3-diphenylpropyl)-1-(3-hydroxypropyl)urea]
15 | < 100 nM | CS(=O)(=O)Nc1ccc(-c2nc(NC(=O)N(CCN[C@H]3CCCNC3)CCC(c3ccccc3)c3ccccc3)sc2Cl)cc1 [Example 141, (S)-3-(5-chloro-4-(4-(methylsulfonamido)phenyl)thiazol-2-yl)-1-(3,3-diphenylpropyl)-1-(2-(piperidin-3-ylamino)ethyl)urea]
16 | < 100 nM | CSCCN(CCC(c1ccccc1)c1ccccc1)C(=O)Nc1nc(-c2ccc(NS(C)(=O)=O)cc2)c(Cl)s1 [Example 137, 3-(5-chloro-4-(4-(methylsulfonamido)phenyl)thiazol-2-yl)-1-(3,3-diphenylpropyl)-1-(2-(methylthio)ethyl)urea]
17 | 100 to 1000 nM | O=C(CCN(CCC(c1ccccc1)c1ccccc1)C(=O)Nc1nc(-c2ccccc2)cs1)N[C@@H]1CCCNC1 [Example 102, (R)-1-(3,3-diphenylpropyl)-1-(3-oxo-3-(piperidin-3-ylamino)propyl)-3-(4-phenylthiazol-2-yl)urea]
18 | 1000 to 5000 nM | CC(CN(CCC(c1ccccc1)c1ccccc1)C(=O)Nc1nc2ccccc2s1)C(=O)O (stereo not shown) [Example 122, 3-(3-(benzo[d]thiazol-2-yl)-1-(3,3-diphenylpropyl)ureido)-2-methylpropanoic acid]
19 | 100 to 1000 nM | CC(C)(C)OC(=O)NCCN(CCC(c1ccccc1)c1ccccc1)C(=O)Nc1nc2ccccc2s1 [Example 148, {2-[3-Benzothiazol-2-yl-1-(3,3-diphenyl-propyl)-ureido]-ethyl}-carbamic acid tert-butyl ester]
20 | 100 to 1000 nM | CC(C)(C)OC(=O)N1CCN(C(=O)CCCN(CCC(c2ccccc2)c2ccccc2)C(=O)Nc2nc(-c3ccccc3)cs2)CC1 [Example 96, tert-butyl 4-(4-(1-(3,3-diphenylpropyl)-3-(4-phenylthiazol-2-yl)ureido)butanoyl)piperazine-1-carboxylate]
21 | < 100 nM | O=C(CCCN(CCC(c1ccccc1)c1ccccc1)C(=O)Nc1nc2ccccc2s1)NCc1ccccc1 [Example 86, 3-(benzo[d]thiazol-2-yl)-1-(4-(benzylamino)-4-oxobutyl)-1-(3,3-diphenylpropyl)urea]
22 | 100 to 1000 nM | O=C(CCCN(CCC(c1ccccc1)c1ccccc1)C(=O)Nc1nc2ccccc2s1)NC1CCCCC1 [Example 97, 3-(benzo[d]thiazol-2-yl)-1-(4-(cyclohexylamino)-4-oxobutyl)-1-(3,3-diphenylpropyl)urea]
23 | < 100 nM | O=C(NCCCCN(CCC(c1ccccc1)c1ccccc1)C(=O)Nc1nc2ccccc2s1)C1CCNCC1 [Example 127, 3-(benzo[d]thiazol-2-yl)-1-(3,3-diphenylpropyl)-1-(4-(piperidine-4-carboxamido)butyl)urea]
24 | 100 to 1000 nM | CS(=O)(=O)Nc1ccc(-c2nc(NC(=O)N(CCC(=O)O)CCC(c3ccccc3)c3ccccc3)sc2Cl)cc1 [Example 98, 3-(3-(5-chloro-4-(4-(methylsulfonamido)phenyl)thiazol-2-yl)-1-(3,3-diphenylpropyl)ureido)propanoic acid]
25 | < 100 nM | CS(=O)(=O)Nc1ccc(-c2nc(NC(=O)N(CCN)CCC(c3ccccc3)c3ccccc3)sc2Cl)cc1 [Example 135, 1-(2-aminoethyl)-3-(5-chloro-4-(4-(methylsulfonamido)phenyl)thiazol-2-yl)-1-(3,3-diphenylpropyl)urea]
